Reference: ChEMBL document CHEMBL4651402, “Screening of ~5500 FDA-approved drugs and clinical candidates for anti-SARS-CoV-2 activity” (2021)

Tested on: SARS-CoV-2
Assay: microbe, parasite or virus in culture
Conditions: Severe acute respiratory syndrome coronavirus 2, Vero C1008, 48 h

| SMILES | IC50 [µM] | IC50 (read-out: pIC50 (converted)) [µM] |
| --- | --- | --- |
| N=C(N)NC(=O)Cc1c(Cl)cccc1Cl [GUANFACINE] | > 20 | > 20 |
| CCCCc1nc2cc(/C=C/C(=O)NO)ccc2n1CCN(CC)CC [PRACINOSTAT] | > 20 | > 20 |
| CC(=O)OCC(=O)[C@@]1(O)CC[C@H]2C3CCC4=CC(=O)C=CC4(C)[C@H]3C(=O)CC21C (some centres not stated) | > 20 | > 20 |
| [2H]C1([2H])COc2ccc(Cc3cc([C@@H]4O[C@H](CO)[C@@H](O)[C@H](O)[C@H]4O)ccc3CC)cc2O1 | > 20 | > 20 |
| COc1ccc(C(=O)NCc2ccc(OCCN(C)C)cc2)cc1OC [ITOPRIDE] | > 20 | > 20 |
| NNCCc1ccccc1 [PHENELZINE] | > 20 | > 20 |
| N#CCC1(n2cc(-c3ncnc4[nH]ccc34)cn2)CN(C2CCN(C(=O)c3ccnc(C(F)(F)F)c3F)CC2)C1 [ITACITINIB] | > 20 | > 20 |
| CNC(=O)NC(O)C(Cl)(Cl)Cl (configuration not stated) [MECLORALUREA] | > 20 | > 20 |
| CC1(O)CCOC(=O)C1 (configuration not stated) | > 20 | > 20 |
| Cc1ccccc1-c1cc(N2CCN(C)CC2)ncc1N(C)C(=O)C(C)(C)c1cc(C(F)(F)F)cc(C(F)(F)F)c1 [NETUPITANT] | > 20 | > 20 |
| C#C[C@@]1(O)CCC2C3CCc4cc(OC)ccc4C3CCC21C (some centres not stated) | > 20 | > 20 |
| CCOP(=O)(Cc1ccc(C(=O)Nc2ccc(Br)cc2C#N)cc1)OCC [IBROLIPIM] | > 20 | > 20 |
| Cc1cccc(Cl)c1NC(=O)CCN1CCC[C@H]2CCC[C@@H]21 | > 20 | > 20 |
| COc1cc2c(cc1OC)-c1cc3ccc(OC)c(OC)c3c[n+]1CC2 [PALMITINE] | > 20 | > 20 |
| NC(=O)[C@@H](CCC(F)(F)F)N(Cc1ccc(-c2ncon2)cc1F)S(=O)(=O)c1ccc(Cl)cc1 | > 20 | > 20 |
| C[C@H](O)[C@H](O)[C@H]1CNc2nc(N)[nH]c(=O)c2N1 [SAPROPTERIN] | > 20 | > 20 |
| C[C@]12C=CC(=O)C=C1CC[C@H]1[C@@H]3C[C@@H](O)[C@](O)(C(=O)CO)[C@@]3(C)C[C@H](O)[C@@]12F [TRIAMCINOLONE] | > 20 | > 20 |
| CC(=O)OCC1=C(C(=O)O)N2C(=O)[C@@H](N)[C@H]2SC1 | > 20 | > 20 |
| COc1c(C(O)CCc2ccc(O)cc2)c(OCCN2CCCCC2)c(OC)c2occc12 (configuration not stated) [PIPROFUROL] | > 20 | > 20 |
| CC/C(=C(\c1ccc(O)cc1)c1ccc(OCCN(C)C)cc1)c1ccccc1 [AFIMOXIFENE] | > 20 | > 20 |
| Cn1nnc2c(C(N)=O)ncn2c1=O [TEMOZOLOMIDE] | > 20 | > 20 |
| C[C@H]1CCC[C@H](O)CCCCCc2cc(O)cc(O)c2C(=O)O1 [ZERANOL] | > 20 | > 20 |
| O=C(c1cc2ccccc2o1)N1CCN(Cc2ccccc2)CC1 [BEFURALINE] | > 20 | > 20 |
| NC[C@H]1O[C@H](O[C@H]2[C@H](O[C@@H]3O[C@H](CO)[C@@H](O)[C@H]3O)[C@@H](O)[C@H](N)C[C@@H]2N)[C@H](N)[C@@H](O)[C@@H]1O [RIBOSTAMYCIN] | > 20 | > 20 |
| N#Cc1cccc([C@H]2C=C(C(F)(F)F)NC3=C2C(=O)CCC3)c1 | > 20 | > 20 |
| C[C@]12CCC(=O)C=C1CC[C@@H]1[C@@H]2CC[C@]2(C)C(=O)CC[C@@H]12 [ANDROSTENEDIONE] | > 20 | > 20 |

| SMILES | IC50 [µM] | IC50 (read-out: pIC50 (converted)) [µM] |
| --- | --- | --- |
| c1cc2c(cc1[C@H]1OC[C@H]3[C@@H]1CO[C@@H]3c1ccc3c(c1)OCO3)OCO2 [SESAMIN] | > 20 | > 20 |
| CCN(CC)CC(=O)Nc1c(C)cccc1C [LIDOCAINE] | > 20 | > 20 |
| CC1=C(C(=O)Nc2ccccc2)SCCO1 [CARBOXIN] | > 20 | > 20 |
| CC(=O)c1ccc[nH]1 [2-ACETYLPYRROLE] | > 20 | > 20 |
| COc1cc(OC)c(/C=C/S(=O)(=O)Cc2ccc(OC)c(NCC(=O)O)c2)c(OC)c1 [RIGOSERTIB] | > 20 | > 20 |
| N[C@H](Cc1ccc(F)cc1)C(=O)O | > 20 | > 20 |
| CCCCCOC(=O)Nc1nc(=O)n([C@@H]2O[C@H](C)[C@@H](O)[C@H]2O)cc1F [CAPECITABINE] | > 20 | > 20 |
| Cc1cc(N2CCN([C@@H]3CN[C@H](C(=O)N4CCSC4)C3)CC2)n(-c2ccccc2)n1 [TENELIGLIPTIN] | > 20 | > 20 |
| NC(=O)NCCC[C@H](N)C(=O)O [L-CITRULLINE] | > 20 | > 20 |
| OC[C@H]1O[C@@H](c2ccc(Cl)c(Cc3ccc(O[C@H]4CCOC4)cc3)c2)[C@H](O)[C@@H](O)[C@@H]1O [EMPAGLIFLOZIN] | > 20 | > 20 |
| O[C@H]1[C@H](O)[C@@H](O)[C@H](O)[C@@H](O)[C@H]1O [INOSITOL] | > 20 | > 20 |
| O=C1CCC(c2ccccc2)(C2CCN(C/C=C/c3ccccc3)CC2)C(=O)N1 (configuration not stated) | > 20 | > 20 |
| C[C@]12CCCN1CC1=NNC(=O)c3cc(F)cc4[nH]c2c1c34 [PAMIPARIB] | > 20 | > 20 |
| CN(C)CCc1c[nH]c2ccc(Cn3cncn3)cc12 [RIZATRIPTAN] | > 20 | > 20 |
| Cc1[nH]c2ccccc2c1CN(C)C [2-METHYL GRAMINE] | > 20 | > 20 |
| OCC(O)CO [GLYCERIN] | > 20 | > 20 |
| O=C(O)CC(=O)C(=O)O [OXALOACETATE] | > 20 | > 20 |
| COc1c(O)cc2c(c1O)C1OC(CO)C(O)C(O)C1OC2=O (configuration not stated) | > 20 | > 20 |
| FC(F)(F)c1ccc2c(c1)N(CCCN1CCN(C3CC3)CC1)c1ccccc1S2 [CYCLOPHENAZINE] | > 20 | > 20 |
| COc1ccc([C@@H]2Sc3ccccc3N(CCN(C)C)C(=O)[C@@H]2OC(C)=O)cc1 [DILTIAZEM] | > 20 | > 20 |
| Oc1cccc2cccnc12 [OXYQUINOLINE] | > 20 | > 20 |
| CCCC1(c2cccc(O)c2)CCN(C)C1 (configuration not stated) [PROFADOL] | > 20 | > 20 |
| COc1ccc(COc2cc3oc(=O)c4cc(C(C)O)ccc4c3cc2OC)cc1 (configuration not stated) [PALOMID-529] | > 20 | > 20 |
| CN(C)[C@@H](c1cccnc1)C1COCOC1 [DOXPICOMINE] | > 20 | > 20 |
| COP(=O)(OC)C(O)C(Cl)(Cl)Cl (configuration not stated) [TRICHLORFON] | > 20 | > 20 |
| O=C(NCc1ccncc1)C12CC3CC(C1)CC(c1ccc(Cl)cc1)(C3)C2 [ABC-294640] | > 20 | > 20 |

| SMILES | IC50 [µM] | IC50 (read-out: pIC50 (converted)) [µM] |
| --- | --- | --- |
| C[C@]1(c2nc3c(C(N)=O)cccc3[nH]2)CCCN1 [VELIPARIB] | > 20 | > 20 |
| NC(=O)N1c2ccccc2CC(=O)c2ccccc21 [OXCARBAZEPINE] | > 20 | > 20 |
| CC(=O)N[C@@H](CC(N)=O)C(=O)O | > 20 | > 20 |
| Oc1c(Br)cc(Br)c2cccnc12 [BROXYQUINOLINE] | > 20 | > 20 |
| C[C@@H]1CN(Cc2ccc(F)cc2)[C@@H](C)CN1C(=O)c1cc2c(C(=O)C(=O)N(C)C)cn(C)c2cc1Cl [TALMAPIMOD] | > 20 | > 20 |
| COc1ccc2c(c1OC)C(=O)O[C@H]2[C@@H]1c2c(cc3c(c2OC)OCO3)CCN1C | > 20 | > 20 |
| NC(=O)NS(=O)(=O)c1ccc(N)cc1 [SULFACARBAMIDE] | > 20 | > 20 |
| NC(=O)OCC(O)COc1ccc(Cl)cc1 (configuration not stated) [CHLORPHENESIN CARBAMATE] | > 20 | > 20 |
| COc1ccc(OC)c(C(O)CNC(=O)CN)c1 (configuration not stated) [MIDODRINE] | > 20 | > 20 |
| CCN(CC)CC1CCCCN1CC(=O)N1c2ccccc2C(=O)Nc2cccnc21 (configuration not stated) [OTENZEPAD] | > 20 | > 20 |
| CCC(C)C(=O)OC1CC2(C)C(c3ccoc3)OC(=O)CC23OC2(C)OC34C(OC(=O)C(C)C)C3(O)C(OC(=O)C5(C)OC5C)C5(C)CC3(O)C(C)(C5CC(=O)OC)C14O2 (configuration not stated) | > 20 | > 20 |
| Fc1ccc(C(c2ccc(F)cc2)N2CCN(C/C=C\c3ccccc3)CC2)cc1 | > 20 | > 20 |
| Nc1ccc(C(=O)NCC(=O)O)cc1 [AMINOHIPPURIC ACID] | > 20 | > 20 |
| CCCCC[C@H](O)CC[C@@H]1[C@H]2Cc3cccc(OCC(=O)O)c3C[C@H]2C[C@H]1O [TREPROSTINIL] | > 20 | > 20 |
| Nc1nc2[nH]cc(CCc3ccc(C(=O)N[C@@H](CCC(=O)O)C(=O)O)cc3)c2c(=O)[nH]1 [PEMETREXED] | > 20 | > 20 |
| COc1ccccc1-c1coc2cc(O)ccc2c1=O | > 20 | > 20 |
| NC1(C(=O)O)CCCC1 [CYCLOLEUCINE] | > 20 | > 20 |
| CC(C)c1ccc2c(c1)c(SC(C)(C)C)c(CC(C)(C)C(=O)O)n2Cc1ccc(Cl)cc1 | > 20 | > 20 |
| O=C(O)/C=C/C=C/c1ccc2c(c1)OCO2 [PIPERIC ACID] | > 20 | > 20 |
| Cc1nnc(C(=O)NC(C)(C)c2nc(C(=O)NCc3ccc(F)cc3)c(O)c(=O)n2C)o1 | > 20 | > 20 |
| C=C1C[C@@H]2[C@H](CC[C@]3(C)C(=O)CC[C@@H]23)[C@@]2(C)C=CC(=O)C=C12 [EXEMESTANE] | > 20 | > 20 |
| CCc1cc(/C(C)=N/OCc2ccc(C3CCCCC3)c(C(F)(F)F)c2)ccc1CN1CC(C(=O)O)C1 [SIPONIMOD] | > 20 | > 20 |
| CC1NC(=O)COC1c1ccccc1 (configuration not stated) [FENMETRAMIDE] | > 20 | > 20 |
| CC12CCC(=O)C(O)=C1CCC1C2CCC2(C)C1CC[C@]2(C)O (some centres not stated) | > 20 | > 20 |
